Consider two molecules from paper PMC4685012 (Bioorganic & medicinal chemistry, 2015).

The test system of one assay is HDAC1/2. Conditions: read-out: HDAC1/2 IC50; cited from earlier work.
Another assay deals with Vero cells. Briefly: Cell viability. It is filed as cell-based, monkey. Conditions: Primates, 72 h, read-out: Anti-proliferative activity IC50, Vero.

As for `CC[C@H]1OC(=O)[C@@H](C)[C@H](O[C@H]2C[C@@](C)(OC)[C@@H](O)[C@H](C)O2)[C@H](C)[C@H](O[C@H]2O[C@@H](C)C[C@@H](N(C)Cc3ccc(-c4cn(CCCCCCC(=O)NO)nn4)cc3)[C@@H]2O)[C@@](C)(O)C[C@H](C)CN(C)[C@@H](C)[C@H](O)[C@@]1(C)O` [Compound 17f], the IC50 with HDAC1/2 is 13.9 nM.

Take `O=C(CCCCCCC(=O)Nc1ccccc1)NO` [SAHA, suberoylanilide hydroxamic acid, reference compound]: the IC50 with Vero cells turned out to be 1030 ± 90 nM.
